From patent US20030187007A1, “Inhibitors of protein kinase for the treatment of disease” (priority 2001, published 2003)
pIC50: −log10 of the molar value. Where a name gives a salt, the structure may show the parent alone.

What was measured:
Assay type in all cases: biochemical
[1] = target: CDK2 complexed with cyclin A (Homo sapiens, UniProt P24941); assay: Cyclin dependent kinase activity assay, phosphorylation of synthetic peptide PKTPKKAKKLRRR; details: 0.1 mM ATP, read-out: CDK 2 Activity*
Method: (§1) The assay of cyclin dependent kinase activity was determined by monitoring the phosphorylation of a synthetic peptide, PKTPKKAKKLRRR. The assay mixture contained 0.1 mM cold ATP, ^33P-γ-ATP (2000-4000 cpm/μL), 0.1 mM peptide, 1 mM DTT, and 10 mM MgCl2 in 100 mM HEPES buffer pH 7.4. The assay mixture, along with inhibitor and CDK enzyme (0.3-0.4 U/mL; either CDK5 complexed with p25, CDK2 complexed with complexed with cyclin A), was mixed together in a microtiter plate in a final volume of 40 μL, sealed and incubated for 2 hours at 30° C. Following incubation, a 15 μL aliquot was added to a Whatman P81 filtration plate containing 100 μL 0.5% phosphoric acid. This mixture was allowed to stand for 5 minutes prior to filtration on a vacuum manifold. The filter plate was washed with 5 successive additions of 300 μL 0.5% phosphoric acid. The filtration plate was air dried for 10 minutes before sealing the bottom. After addition of scintillation fluid to the sealed plate, phosphorylated peptide was quantified in a scintillation counter.

CDK5 complexed with p25 = CDK5 complexed with p25 (Homo sapiens, UniProt Q00535); assay: as above; details: CDK5 complexed with p25, 0.1 mM ATP; read-out: CDK 5 Activity*
Sequence of CDK5 complexed with p25 (Q00535 whole entry): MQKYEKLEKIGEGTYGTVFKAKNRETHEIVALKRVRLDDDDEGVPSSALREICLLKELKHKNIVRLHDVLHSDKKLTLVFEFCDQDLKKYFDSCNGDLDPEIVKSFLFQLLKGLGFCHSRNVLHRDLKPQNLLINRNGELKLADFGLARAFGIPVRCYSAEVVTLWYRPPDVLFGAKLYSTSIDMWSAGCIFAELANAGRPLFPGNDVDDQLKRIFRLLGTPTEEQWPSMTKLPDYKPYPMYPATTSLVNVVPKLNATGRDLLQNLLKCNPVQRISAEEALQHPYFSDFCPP
Sequence of CDK5 complexed with p25 (Q15078 99-307 partner limits assumed): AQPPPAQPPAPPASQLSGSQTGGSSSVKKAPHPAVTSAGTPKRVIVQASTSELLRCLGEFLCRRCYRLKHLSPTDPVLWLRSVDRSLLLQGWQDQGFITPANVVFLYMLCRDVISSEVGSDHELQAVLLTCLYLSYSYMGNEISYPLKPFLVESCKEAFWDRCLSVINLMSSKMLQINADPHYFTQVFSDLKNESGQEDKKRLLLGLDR
Method: as §1

KDR = KDR (Homo sapiens, UniProt P35968); assay: Enzyme assay for  (KDR), IC50 determination; details: 50 nM KDR, 500 μM ATP
Sequence of KDR (P35968 20-1356): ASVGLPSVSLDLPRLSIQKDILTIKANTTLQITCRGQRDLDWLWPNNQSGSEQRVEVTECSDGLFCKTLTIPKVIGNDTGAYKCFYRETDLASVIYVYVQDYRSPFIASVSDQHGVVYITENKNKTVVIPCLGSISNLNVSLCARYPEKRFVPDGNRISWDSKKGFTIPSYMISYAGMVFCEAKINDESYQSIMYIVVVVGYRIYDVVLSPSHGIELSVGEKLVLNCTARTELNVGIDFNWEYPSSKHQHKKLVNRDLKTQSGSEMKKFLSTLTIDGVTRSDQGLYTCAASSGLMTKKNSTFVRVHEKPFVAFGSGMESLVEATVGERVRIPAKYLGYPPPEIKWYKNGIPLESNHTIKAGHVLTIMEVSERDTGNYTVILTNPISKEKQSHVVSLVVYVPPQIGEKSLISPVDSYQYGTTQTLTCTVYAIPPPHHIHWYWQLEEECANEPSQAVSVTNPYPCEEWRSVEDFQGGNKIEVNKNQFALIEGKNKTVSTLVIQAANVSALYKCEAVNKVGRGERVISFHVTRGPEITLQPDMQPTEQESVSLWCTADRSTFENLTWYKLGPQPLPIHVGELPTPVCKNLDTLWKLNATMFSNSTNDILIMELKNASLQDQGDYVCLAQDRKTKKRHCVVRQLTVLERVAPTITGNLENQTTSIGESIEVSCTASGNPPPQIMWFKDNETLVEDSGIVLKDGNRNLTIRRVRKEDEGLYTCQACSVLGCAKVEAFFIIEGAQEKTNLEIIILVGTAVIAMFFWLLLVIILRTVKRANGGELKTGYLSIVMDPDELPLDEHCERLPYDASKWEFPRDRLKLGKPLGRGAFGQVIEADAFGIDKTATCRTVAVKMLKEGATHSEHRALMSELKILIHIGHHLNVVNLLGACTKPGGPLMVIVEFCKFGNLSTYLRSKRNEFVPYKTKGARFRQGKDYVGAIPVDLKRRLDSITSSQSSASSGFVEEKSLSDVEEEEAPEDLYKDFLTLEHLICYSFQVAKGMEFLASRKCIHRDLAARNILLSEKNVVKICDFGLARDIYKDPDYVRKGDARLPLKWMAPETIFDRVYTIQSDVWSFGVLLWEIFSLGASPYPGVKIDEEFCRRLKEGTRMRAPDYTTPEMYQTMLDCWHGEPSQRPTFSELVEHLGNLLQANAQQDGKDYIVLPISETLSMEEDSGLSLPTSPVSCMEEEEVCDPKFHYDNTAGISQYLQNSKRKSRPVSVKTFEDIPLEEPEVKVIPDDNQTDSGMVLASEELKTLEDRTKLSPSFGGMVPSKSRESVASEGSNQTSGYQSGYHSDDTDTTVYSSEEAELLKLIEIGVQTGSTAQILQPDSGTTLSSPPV
Method: Enzyme assays for IC50 determinations were performed in 96-well titer plates, in a total reaction volume of 50 μL. Each reaction contained 1.5 μL of appropriate dilutions of inhibitor, 50 mM Hepes, pH 7.4, 1 mM DTT, 10 mM magnesium chloride, 2 mM phospho-poly(E4Y) (Sigma Chemical Company), 500 μM unlabeled ATP, 0.0025 μM [^33P]ATP (Amersham Pharmacia Biotech), and 50 nM KDR. All components except KDR were added to the wells, and the reaction was started by the addition of the enzyme. The reactions were mixed and incubated at room temperature for 1 hr, after which the reactions were quenched by the addition of 50 μL of 8% phosphoric acid. At this point, 90 μL aliquots of the samples were applied to positively charged DEAE 96-well filter plates (Millipore Corporation MADENOB10). The plates were incubated for 30 min at room temperature. The samples were aspirated and the wells were washed 3 times with 200 μL of 0.5% phosphoric acid. To each well, 50 μL of scintillation cocktail was added and counted for 60 sec in a TopCount microplate scintillation counter (Packard Instrument Company). The concentration of a compound that inhibited the activity of KDR by 50% (IC50) was determined based its inhibition curve.

Row | Structure (SMILES) | pIC50 [1] | pIC50 (CDK5 complexed with p25) | pIC50 (KDR)
1 | Nc1ccc(-c2cc(-c3cc(-c4ccc(O)cc4)ccc3O)nc(N)n2)cc1 [Example 90, 3-[2-Amino-6-(4-amino-phenyl)-pyrimidin-4-yl]-biphenyl-4,4′-diol] | > 6.30 | > 6.30 | > 6.00
2 | Nc1nc(-c2cc(-c3ccc(O)cc3)ccc2O)cc(N2CCC[C@@H]2CO)n1 [Example 80, 3-[2-Amino-6-(2S-hydroxymethyl-pyrrolidin-1-yl)-pyrimidin-4-yl]-biphenyl-4,4′-diol] | > 6.30 | > 6.30 | 4.70 to 6.00
3 | NC(=O)N/N=C/c1cc(-c2ccc(O)cc2)ccc1O [Example 22, 5-(4-Hydroxyphenyl)salicylaldehyde semicarbazone hydrochloride] | > 6.30 | > 6.30 | 4.70 to 6.00
4 | Nc1nc(N[C@@H](CO)Cc2ccccc2)cc(-c2cc(-c3ccc(O)cc3)ccc2O)n1 [Example 86, 3-[2-Amino-6-(1R-benzyl-2-hydroxy-ethylamino)-pyrimidin-4-yl]-biphenyl-4,4′-diol] | > 6.30 | > 6.30 | 4.70 to 6.00
5 | Nc1nc(-c2cccc(CO)c2)cc(-c2cc(-c3ccc(O)cc3)ccc2O)n1 [Example 84, 3-[2-Amino-6-(3-hydroxymethyl-phenyl)-pyrimidin-4-yl]-biphenyl-4,4′-diol] | > 6.30 | > 6.30 | > 6.00
6 | NC(=O)N/N=C/c1cc(-c2ccc(O)c(F)c2)ccc1O [Example 24, 5-(3-Fluoro-4-hydroxyphenyl)salicylaldehyde semicarbazone hydrochloride] | > 6.30 | > 6.30 | 4.70 to 6.00
7 | Nc1nc(N)nc(-c2cc(-c3ccc(O)cc3)ccc2O)n1 [Example 58, 3-(4.6-Diamino-[1,3,5]triazin-2-yl)-biphenyl-4,4′-diol] | > 6.30 | > 6.30 | > 6.00
8 | Nc1nc(-c2cccc([N+](=O)[O-])c2)cc(-c2cc(-c3ccc(O)cc3)ccc2O)n1 [Example 88, 3-[2-Amino-6-(3-nitro-phenyl)-pyrimidin-4-yl]-biphenyl-4,4′-diol] | > 6.30 | > 6.30 | 4.70 to 6.00
9 | Nc1nc(NCc2cccc(F)c2)cc(-c2cc(-c3ccc(O)cc3)ccc2O)n1 [Example 115, 3-[2-Amino-6-(3-fluoro-benzylamino)-pyrimidin-4-yl]-biphenyl-4,4′-diol] | – | – | 4.70 to 6.00
10 | Nc1cc(-c2ccc(O)c(-c3ccnc(N)n3)c2)ccn1 [Example 67, 4-(2-Amino-pyridin-4-yl)-2-(2-amino-pyrimidin-4-yl)-phenol] | > 6.30 | – | > 6.00
11 | COc1cccc(CNc2cc(-c3cc(-c4ccc(O)cc4)ccc3O)nc(N)n2)c1 [Example 117, 3-[2-Amino-6-(3-methoxy-benzylamino)-pyrimidin-4-yl]-biphenyl-4,4′-diol] | – | – | > 6.00
12 | COc1ccc(Nc2cc(-c3cc(-c4ccc(O)cc4)ccc3O)nc(N)n2)cc1 [Example 98, 3-[2-Amino-6-(4-methoxy-phenylamino)-pyrimidin-4-yl]-biphenyl-4,4′-diol] | – | – | > 6.00
13 | Nc1nc(-c2ccc3[nH]ccc3c2)cc(-c2cc(-c3ccc(O)cc3)ccc2O)n1 [Example 114] | – | – | > 6.00
14 | Nc1nc(NCc2ccccc2-c2ccccc2)cc(-c2cc(-c3ccc(O)cc3)ccc2O)n1 [Example 108, 3-{2-Amino-6-[(biphenyl-2-ylmethyl)-amino]-pyrimidin-4-yl}-biphenyl-4,4′-diol] | – | – | > 6.00
15 | CN1CCN(c2cc(-c3cc(-c4ccc(O)cc4)ccc3O)nc(N)n2)CC1 [Example 104, 3-[2-Amino-6-(4-methyl-piperazin-1-yl)-pyrimidin-4-yl]-biphenyl-4.4′-diol] | – | – | 4.70 to 6.00
16 | Nc1nc(N[C@@H](CO)Cc2c[nH]c3ccccc23)cc(-c2cc(-c3ccc(O)cc3)ccc2O)n1 [Example 102, 3-{2-Amino-6-[2-hydroxy-1R-(1 H-indol-3-ylmethyl)-ethylamino]-pyrimidin-4-yl}-biphenyl-4,4′-diol] | – | – | 4.70 to 6.00
